Measurements from paper PMC6271638, “Synthesis of New 1,2,3-Triazol-4-yl-quinazoline Nucleoside and Acyclonucleoside Analogues” (Molecules, 2014).
Like-named read-outs stand apart in the source and are kept apart here.

What was measured:
[1] = test system: HCV replicon (genotype 1b, CON1); experiment: Anti-HCV activity, 3-day cell culture assay in HCV-replicon-containing cell line AVA5; type: cell-based, hepatitis C virus; conditions: AVA5 cells (genotype 1b, CON1), 3-day assay, read-out: IC50, concentration of compound achieving 50% inhibition of the replicon system
Experimental: Antiviral activity was assessed in a 3-day cell culture assay using the HCV-replicon-containing cell line, AVA5 (genotype 1b, CON1) (provided to GUMC by Apath, Inc., Brooklyn, NY, USA) as previously described.

[2] = test system: Huh 5.2 cells; experiment: Cytotoxicity (50% extinction of cells) in the anti-HCV replicon assay; type: cell-based; conditions: 3-day cell culture assay, read-out: CC50, concentration of compound required for 50% extinction of Huh 5.2 cells
[3] = as above; type: cell-based; conditions: human; Huh 5.2 cells; 3-day cell culture assay; read-out: CC50, concentration of compound required for 50% extinction of Huh 5.2 cells

| Compound | IC50 [1] [µM] | CC50 [2] [µM] | IC50 ([1]; Hepatitis C virus, 72 h) [µM] | CC50 at 3 day [3] [µM] |
| --- | --- | --- | --- | --- |
| 3-((1-(β-D-Ribofuranos-1-yl)-1,2,3-triazol-4-yl)methyl)-2-methylquinazolin-4-one [Compound 7d] | > 10 | ≥ 100 |  |  |
| 3-((1-(β-D-Ribofuranos-1-yl)-1,2,3-triazol-4-yl)methyl)quinazolin-4-one [Compound 7g] | > 10 | ≥ 100 |  |  |
| 4-((1-(β-D-Ribofuranos-1-yl)-1,2,3-triazol-4-yl)methoxy)-2-phenylquinazoline [Compound 7a] | > 10 | ≥ 50 |  |  |
| C[C@@]1(O)[C@H](O)[C@@H](CO)O[C@H]1n1ccc(N)nc1=O [Compound 2CmeCyt, reference compound] | 1.5 | > 300 |  |  |
| OCCOCn1cc(COc2nc(-c3ccccc3)nc3ccccc23)nn1 [Compound 7b, 2-((4-((2-Phenylquinazolin-4-yloxy)methyl)-1,2,3-triazol-1-yl)methoxy)etanol] |  |  | > 10 | ≥ 100 |
| OCCCCn1cc(COc2nc(-c3ccccc3)nc3ccccc23)nn1 [Compound 7c, 4-(4-((2-Phenylquinazolin-4-yloxy)methyl)-1,2,3-triazol-1-yl)butan-1-ol] |  |  | > 10 | ≥ 50 |
| Cc1nc2ccccc2c(=O)n1Cc1cn(COCCO)nn1 [Compound 7e, 2-((4-((2-Methyl-4-oxoquinazolin-3-yl)methyl)-1,2,3-triazol-1-yl)methoxy)ethanol] |  |  | > 10 | ≥ 50 |
| Cc1nc2ccccc2c(=O)n1Cc1cn(CCCCO)nn1 [Compound 7f, 4-(4-((2-Methyl-4-oxoquinazolin-3-yl)methyl)-1,2,3-triazol-1-yl)butan-1-ol] |  |  | > 10 | ≥ 50 |
| O=c1c2ccccc2ncn1Cc1cn(COCCO)nn1 [Compound 7h, 2-((4-((4-Oxoquinazolin-3-yl)methyl)-1,2,3-triazol-1-yl)methoxy)ethanol] |  |  | > 10 | ≥ 50 |
| O=c1c2ccccc2ncn1Cc1cn(CCCCO)nn1 [Compound 7i, 4-(4-((4-Oxoquinazolin-3-yl)methyl)-1H-1,2,3-triazol-1-yl)butan-1-ol] |  |  | > 10 | ≥ 50 |
